US8415342B2, “Besifloxacin ophthalmic composition for the treatment or control of infection” (Bausch & Lomb Incorporated, priority 2008, dated 2013)

Experiments:
Format in all cases: cell-based
[1] = tested on: Streptococcus salivarius; assay: MIC of clinical trial isolates, Studies 373, 433, 434; conditions: N 9
[2] = tested on: S. epidermidis; assay: as above; conditions: Staphylococcus epidermidis, all phenotypes, N 111
[3] = tested on: H. influenzae; assay: as above; conditions: Haemophilus influenzae, all phenotypes, N 344
Method: (§1) PFGE testing was performed per standard procedures.
(§2) The antibacterial susceptibility profile of each Visit 1 bacterial isolate was determined for besifloxacin and other antimicrobials.

[4] = tested on: S. mitis group; assay: as above; conditions: Streptococcus mitis group, N 45
Method: as §1, §2

[5] = tested on: S. pneumoniae; assay: as above; conditions: Streptococcus pneumoniae, all phenotypes, N 302
Method: as §1, §2

[6] = tested on: CDC coryneform group G; assay: as above; conditions: N 29
Method: as §1, §2

[7] = tested on: Streptococcus oralis; assay: as above; conditions: N 18
Method: as §1, §2

[8] = tested on: S. aureus; assay: as above; conditions: Staphylococcus aureus, all phenotypes, N 190
[9] = tested on: Corynebacterium striatum; assay: as above; conditions: N 8
[10] = tested on: Corynebacterium pseudodiphtheriticum; assay: as above; conditions: N 8
[11] = tested on: Streptococcus mitis; assay: as above; conditions: Streptococcus mitis (listed separately from S. mitis group), N 20
Method: PFGE testing was performed per standard procedures. […] Analysis Populations

[12] = tested on: Staphylococcus hominis; assay: as above; conditions: N 9
[13] = tested on: Staphylococcus lugdunensis; assay: as above; conditions: N 8
[14] = tested on: baseline pathogens of bacterial conjunctivitis patients; assay: MIC of baseline clinical trial isolates, Studies 373, 433, 434 (all species)

For `N[C@@H]1CCCCN(c2c(F)cc3c(=O)c(C(=O)O)cn(C4CC4)c3c2Cl)C1` [BESI], the MIC50 [1] was 0.125 µg/mL, the “MIC Range” value [1] was 0.06 to 0.25 µg/mL and the MIC50 [2] was 0.06 µg/mL. For the same compound, the MIC90 [2] was 0.5 µg/mL, the “MIC Range” value [2] was 0.03 to 4 µg/mL and the MIC50 [3] was 0.03 µg/mL. The MIC90 [3] was 0.06 µg/mL, the “MIC Range” value [3] was 0.008 to 0.5 µg/mL and the MIC50 [4] was 0.125 µg/mL. The MIC90 [4] was 0.25 µg/mL, the “MIC Range” value [4] was 0.03 to 1 µg/mL and the MIC50 [5] was 0.06 µg/mL. For the same compound, the MIC90 [5] was 0.125 µg/mL, the “MIC Range” value [5] was 0.03 to 0.25 µg/mL and the MIC50 [6] was 0.015 µg/mL. The MIC90 [6] was 0.125 µg/mL, the “MIC Range” value [6] was 0.008 to 2 µg/mL and the MIC50 [7] was 0.125 µg/mL. For the same compound, the MIC90 [7] was 0.25 µg/mL, the “MIC Range” value [7] was 0.015 to 0.25 µg/mL and the MIC50 [8] was 0.03 µg/mL. For the same compound, the MIC90 [8] was 0.5 µg/mL, the “MIC Range” value [8] was 0.008 to 8 µg/mL and the MIC50 [9] was 0.015 µg/mL. For the same compound, the “MIC Range” value [9] was 0.015 to 0.25 µg/mL, the MIC50 [10] was 0.25 µg/mL and the “MIC Range” value [10] was 0.015 to 0.25 µg/mL. For the same compound, the MIC50 [11] was 0.125 µg/mL, the MIC90 [11] was 0.125 µg/mL and the “MIC Range” value [11] was 0.06 to 0.25 µg/mL. The MIC50 [12] was 0.06 µg/mL, the “MIC Range” value [12] was 0.03 to 0.5 µg/mL and the MIC50 [13] was 0.125 µg/mL. For the same compound, the “MIC Range” value [13] was 0.06 to 0.5 µg/mL, the MIC50 ([14]; All organisms, N 1324) was 0.06 µg/mL and the MIC90 ([14]; All organisms, N 1324) was 0.25 µg/mL. For the same compound, the “MIC Range” value ([14]; All organisms, N 1324) was 0.008 to 8 µg/mL, the MIC50 ([14]; Gram-negative, N 438) was 0.03 µg/mL and the MIC90 ([14]; Gram-negative, N 438) was 0.5 µg/mL. The “MIC Range” value ([14]; Gram-negative, N 438) was 0.008 to 8 µg/mL, the MIC50 ([14]; Gram-positive, N 886) was 0.06 µg/mL and the MIC90 ([14]; Gram-positive, N 886) was 0.25 µg/mL. The “MIC Range” value ([14]; Gram-positive, N 886) was 0.008 to 8 µg/mL.

For `C[C@H]1COc2c(N3CCN(C)CC3)c(F)cc3c(=O)c(C(=O)O)cn1c23` [LEVO], the MIC50 [1] was 1 µg/mL, the “MIC Range” value [1] was 1 to 2 µg/mL and the MIC50 [2] was 0.25 µg/mL. It also gave an MIC90 [2] of 8 µg/mL, an MIC50 [3] of 0.03 µg/mL and an MIC90 [3] of 0.03 µg/mL. The “MIC Range” value [3] was “≦0.004-1 μg/mL”, the MIC50 [4] was 1 µg/mL and the MIC90 [4] was 2 µg/mL. The MIC50 [5] was 0.5 µg/mL, the MIC90 [5] was 1 µg/mL and the “MIC Range” value [5] was 0.125 to 2 µg/mL. For the same compound, the MIC50 [6] was 0.06 µg/mL, the MIC90 [6] was 1 µg/mL and the MIC50 [7] was 1 µg/mL. The MIC90 [7] was 2 µg/mL, the “MIC Range” value [7] was 0.125 to 2 µg/mL and the MIC50 [8] was 0.25 µg/mL. The MIC90 [8] was 8 µg/mL, the MIC50 [9] was 0.06 µg/mL and the “MIC Range” value [9] was 0.03 to 4 µg/mL. For the same compound, the MIC50 [10] was 0.5 µg/mL, the “MIC Range” value [10] was 0.06 to 1 µg/mL and the MIC50 [11] was 1 µg/mL. For the same compound, the MIC90 [11] was 1 µg/mL, the “MIC Range” value [11] was 0.5 to 2 µg/mL and the MIC50 [12] was 0.125 µg/mL. The “MIC Range” value [12] was 0.125 to 4 µg/mL, the MIC50 [13] was 0.25 µg/mL and the “MIC Range” value [13] was 0.25 to 2 µg/mL. It also gave an MIC50 ([14]; All organisms, N 1324) of 0.25 µg/mL, an MIC90 ([14]; All organisms, N 1324) of 1 µg/mL and an MIC50 ([14]; Gram-negative, N 438) of 0.03 µg/mL. The MIC90 ([14]; Gram-negative, N 438) was 0.125 µg/mL, the “MIC Range” value ([14]; Gram-negative, N 438) was “≦0.004-8 μg/mL” and the MIC50 ([14]; Gram-positive, N 886) was 0.5 µg/mL. For the same compound, the MIC90 ([14]; Gram-positive, N 886) was 2 µg/mL.
